Test results as given in patent US4581355A, “3-indolecarboxamides for control of circulatory diseases” (Yoshitomi Pharmaceutical Industries, Ltd., priority 1983, dated 1986).

Key:
[1] = tested on: left ventricular pressure max dP/dt; assay: cardiotonic activity (max dP/dt) in anesthetized dogs; type: in vivo; conditions: injected into left coronary artery
Protocol: The experiment on cardiotonic activity of the compounds of the present invention was conducted as follows: Dogs were anesthetized with sodium pentobarbital and heparin was administered intraveneously. The left venticular pressure and its max dP/dt were measured. Test compounds were injected at a volume of 10 to 30 μl into a catheter inserted into left coronary artery. The effects of test compounds on max dP/dt were shown as ED30, a dose required to increase max dP/dt by 30% of the effects of 0.1 μg is isoproterenol.

5-lipoxygenase = 5-lipoxygenase inhibition (method of Yoshimoto et al.); type: biochemical; conditions: read-out: 50% inhibitory concentration on 5-lipoxygenase
Source text: According to the pharmacological experiment conducted by the method of Yoshimoto et al. which is described in Biochem. Biophys. Res. Commum., vol. 107, p.

mice = assay: acute toxicity in male mice; type: in vivo; conditions: observed for 5 days
Source text: The acute toxicity of the compounds of the present invention was studied in 5 male mice weighing 30 to 45 g.

central nervous system = assay: sedative activity by electroencephalograms in rabbits; type: in vivo; conditions: from the intraperitoneal dose of 3 mg/kg

**Q.** How did the “ED30, dose required to increase max dP/dt by 30% of the effects of 0.1 μg isoproterenol” value [1] turn out when `C[C@@H]1O[C@@H](O[C@H]2C[C@@H](O)[C@]3(CO)[C@H]4[C@H](O)C[C@]5(C)[C@@H](C6=CC(=O)OC6)CC[C@]5(O)[C@@H]4CC[C@]3(O)C2)[C@H](O)[C@H](O)[C@H]1O` [ouabain, reference compound] was run?
**A.** 60 µg

**Q.** For `Cc1[nH]c2ccc(O)cc2c1C(=O)NC1CCN(CCc2ccccc2)CC1` [Example 2, 5-hydroxy-2-methyl-N-[1-(2-phenylethyl)-4-piperidyl]indole-3-carboxamide], which IC50 (5-lipoxygenase) is on record?
**A.** 440 nM

**Q.** What about the mortality (mice; oral 1000 mg/kg) of the same molecule?
**A.** All animals survived

**Q.** What does the source list for `Cc1[nH]c2ccc(O)cc2c1C(=O)NC1CCN(CCCc2ccccc2)CC1` [Example 3, 5-hydroxy-2-methyl-N-[1-(3-phenylpropyl)-4-piperidyl]indole-3-carboxamide]?
**A.** IC50 (5-lipoxygenase): 180 nM; ED30, dose required to increase max dP/dt by 30% of the effects of 0.1 μg isoproterenol [1]: 50 µg

**Q.** How did the “ED30, dose required to increase max dP/dt by 30% of the effects of 0.1 μg isoproterenol” value [1] turn out when `Cc1[nH]c2ccc(O)cc2c1C(=O)NC1CCN(CCCc2ccc(O)cc2)CC1` [Example 35, 5-Hydroxy-2-methyl-N-[1-(3-(p-hydroxyphenyl)propyl)-4-piperidyl]indole-3-carboxamide] was run?
**A.** 36 µg

**Q.** What does the source list for `O=C(NC1CCN(CCc2c[nH]c3ccccc23)CC1)c1ccccc1` [indoramin, 3-[2-(4-benzamido-1-piperidyl)ethyl]indole, reference compound]?
**A.** changes on electroencephalograms (sedative activity) (central nervous system): trend toward slow wave; mortality (mice; oral 500 mg/kg): all mice died
